Consider nine molecules from article PMC9516332 (Frontiers in Oncology, 2022).

What all share (test): Kinase panel profiling at 1 µmol/L (MSA or IMAP), percentage inhibition
Common to all, as to format: biochemical

Experiment [1] has as its target panel of 255 wild-type kinases (Homo sapiens, UniProt Q86V86). The following applies: read-out: %-inhibition at 1 µmol/L, PIM3.
For experiment [2], the target named is panel of 255 wild-type kinases (Homo sapiens, UniProt Q13627). The settings on record: read-out: %-inhibition at 1 µmol/L, DYRK1A.
Experiment [3] has as its target T1, panel of 255 wild-type kinases (Homo sapiens, UniProt O15264).
T1 sequence (O15264 1-365): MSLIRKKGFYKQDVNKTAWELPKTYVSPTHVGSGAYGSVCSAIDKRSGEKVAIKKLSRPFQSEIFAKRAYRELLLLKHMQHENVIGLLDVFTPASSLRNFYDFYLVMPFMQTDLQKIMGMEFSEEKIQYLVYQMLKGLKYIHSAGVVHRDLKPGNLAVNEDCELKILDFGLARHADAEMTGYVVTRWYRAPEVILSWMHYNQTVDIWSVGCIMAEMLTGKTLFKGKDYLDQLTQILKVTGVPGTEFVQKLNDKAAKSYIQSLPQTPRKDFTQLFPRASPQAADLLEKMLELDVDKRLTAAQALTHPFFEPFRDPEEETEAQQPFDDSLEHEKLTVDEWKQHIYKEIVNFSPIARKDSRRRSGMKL
The settings on record: read-out: %-inhibition, p38δ.

Experiment [4] has as its target panel of 255 wild-type kinases (Homo sapiens, UniProt P27361). The following applies: read-out: %-inhibition at 1 µmol/L, Erk1.
The target in experiment [5] is T2, panel of 255 wild-type kinases (Homo sapiens, UniProt O60285).
T2 sequence (O60285 1-661): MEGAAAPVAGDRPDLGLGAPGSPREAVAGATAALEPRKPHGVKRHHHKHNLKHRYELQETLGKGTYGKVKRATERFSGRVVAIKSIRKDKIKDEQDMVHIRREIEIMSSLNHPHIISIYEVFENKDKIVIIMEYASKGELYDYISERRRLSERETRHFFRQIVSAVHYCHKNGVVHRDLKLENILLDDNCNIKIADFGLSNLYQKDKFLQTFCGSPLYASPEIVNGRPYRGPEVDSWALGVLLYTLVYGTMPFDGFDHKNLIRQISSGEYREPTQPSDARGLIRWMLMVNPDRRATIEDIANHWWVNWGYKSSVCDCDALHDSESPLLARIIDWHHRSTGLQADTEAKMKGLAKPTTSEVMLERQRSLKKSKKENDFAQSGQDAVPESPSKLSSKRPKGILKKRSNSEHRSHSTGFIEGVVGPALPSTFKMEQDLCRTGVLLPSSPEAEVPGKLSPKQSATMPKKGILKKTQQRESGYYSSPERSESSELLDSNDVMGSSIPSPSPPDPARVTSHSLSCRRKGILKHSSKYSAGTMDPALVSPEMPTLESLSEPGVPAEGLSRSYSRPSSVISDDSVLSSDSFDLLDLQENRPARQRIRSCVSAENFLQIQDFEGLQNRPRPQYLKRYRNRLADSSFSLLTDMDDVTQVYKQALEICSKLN
The following applies: read-out: %-inhibition, NuaK1.

Experiment [6] has as its target panel of 255 wild-type kinases (Homo sapiens, UniProt Q14289). The settings on record: read-out: %-inhibition at 1 µmol/L, PYK2.
The target of experiment [7] is panel of 255 wild-type kinases (Homo sapiens, UniProt P22612). The following applies: read-out: %-inhibition at 1 µmol/L, PKACγ.
Experiment [8] addresses T3, panel of 255 wild-type kinases (Homo sapiens, UniProt P30530).
T3 sequence (P30530 26-894): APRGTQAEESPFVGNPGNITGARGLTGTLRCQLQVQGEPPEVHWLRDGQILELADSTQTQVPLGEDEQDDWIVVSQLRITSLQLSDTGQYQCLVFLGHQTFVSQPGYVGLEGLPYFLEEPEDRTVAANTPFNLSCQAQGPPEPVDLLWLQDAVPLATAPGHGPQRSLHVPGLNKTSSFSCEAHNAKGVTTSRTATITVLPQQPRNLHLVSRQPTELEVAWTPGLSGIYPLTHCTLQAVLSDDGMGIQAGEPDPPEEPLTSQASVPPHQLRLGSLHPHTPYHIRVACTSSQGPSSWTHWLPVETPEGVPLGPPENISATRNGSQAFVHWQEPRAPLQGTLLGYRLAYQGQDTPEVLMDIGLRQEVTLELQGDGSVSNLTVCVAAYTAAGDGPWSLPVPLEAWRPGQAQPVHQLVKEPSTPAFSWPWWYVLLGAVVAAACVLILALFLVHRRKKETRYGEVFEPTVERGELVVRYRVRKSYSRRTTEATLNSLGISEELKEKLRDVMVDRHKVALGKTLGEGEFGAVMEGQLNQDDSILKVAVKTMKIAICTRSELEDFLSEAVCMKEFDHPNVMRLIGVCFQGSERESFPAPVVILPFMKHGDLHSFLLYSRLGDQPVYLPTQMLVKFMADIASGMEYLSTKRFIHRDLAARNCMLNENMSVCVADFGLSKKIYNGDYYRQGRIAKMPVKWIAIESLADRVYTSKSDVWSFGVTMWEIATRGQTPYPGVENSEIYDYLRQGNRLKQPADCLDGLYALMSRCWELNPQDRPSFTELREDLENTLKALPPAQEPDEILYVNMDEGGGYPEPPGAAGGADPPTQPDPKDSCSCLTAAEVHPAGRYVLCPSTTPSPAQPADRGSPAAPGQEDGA
The following applies: read-out: %-inhibition AXL.

Setting [9] is: kinase PIM3, 1 µmol/L single concentration.
[10] abbreviates: kinase DYRK1A, 1 µmol/L single concentration.
[11] abbreviates: p38δ, 1 µmol/L single concentration.
Setting [12] is: kinase Erk1, 1 µmol/L single concentration.
The mark [13] stands for this setting: NuaK1, 1 µmol/L single concentration.
Setting [14] is: kinase PYK2, 1 µmol/L single concentration.
Where [15] appears, read: kinase PKACγ, 1 µmol/L single concentration.
[16] abbreviates: AXL kinase assay, 1 µmol/L single concentration.

Read-outs that look alike come from different tables or passages of the source.

`Cc1nc(NC(=O)N2CCC[C@H]2C(N)=O)sc1-c1ccnc(C(C)(C)C(F)(F)F)c1` [alpelisib]: the inhibition at 1 µM in experiment [1] (setting [9]) is -13%; in experiment [2] (setting [10]), 6%; in experiment [3] (setting [11]) it was -4.21%; in experiment [4] (setting [12]), -0.813%; in experiment [5] (setting [13]), 9%; in experiment [6] (setting [14]), -4%. The values for the inhibition at 1 µM in experiment [7] (setting [15]) and in experiment [8] (setting [16]) were -7.38% and -3.59%, respectively.
`Cn1cc(-c2cc3c(N4CCN(c5ncc([C@@](C)(N)c6ccc(F)cc6)cn5)CC4)ncnn3c2)cn1` [avapritinib]: the inhibition at 1 µM in experiment [1] (setting [9]) is 9%; in experiment [2] (setting [10]), 57%; in experiment [3] (setting [11]), 0.654%; in experiment [4] (setting [12]), -1.84%; in experiment [5] (setting [13]), 85%; in experiment [6] (setting [14]), 1%. Further, the inhibition at 1 µM is 4.43% in experiment [7] (setting [15]) and 37% in experiment [8] (setting [16]).
`Cn1cnc2c(F)c(Nc3ccc(Br)cc3F)c(C(=O)NOCCO)cc21` [binimetinib]: the inhibition at 1 µM in experiment [1] (setting [9]) is 5%; in experiment [2] (setting [10]), -8%; in experiment [3] (setting [11]), 3.49%; in experiment [4] (setting [12]), -4.32%; in experiment [5] (setting [13]), -4.32%; in experiment [6] (setting [14]), 2.41%. The inhibition at 1 µM in experiment [7] (setting [15]) was -3%; in experiment [8] (setting [16]) it was -1.7%.
With `CNC(=O)c1ccc(-c2cnc3ncc(Cc4ccc5ncccc5c4)n3n2)cc1F` [capmatinib], the inhibition at 1 µM was 1.78% in experiment [1]; -0.902% in experiment [2]; -4% in experiment [3]; 2.84% in experiment [4]; -1.53% in experiment [5]; -2.25% in experiment [6]. The inhibition at 1 µM was -1.43% in experiment [7] and 34% in experiment [8].
Consider `COc1cc2ncnc(Nc3ccc(F)c(Cl)c3)c2cc1NC(=O)/C=C/CN1CCCCC1` [dacomitinib], for which the inhibition at 1 µM in experiment [1] (setting [9]) was found to be 23%; in experiment [2] (setting [10]), 9%; in experiment [3] (setting [11]) it was 0.0743%; in experiment [4] (setting [12]), 2.66%; in experiment [5] (setting [13]), 11%; in experiment [6] (setting [14]) it was 1.4%. Also, the results for the inhibition at 1 µM in experiment [7] (setting [15]) and in experiment [8] (setting [16]) were 12% and 40%, respectively.
Take `C[C@H](Nc1ncnc2nc[nH]c12)c1cc2cccc(Cl)c2c(=O)n1-c1ccccc1` [duvelisib]: the inhibition at 1 µM in experiment [1] (setting [9]) was -7%; in experiment [2] (setting [10]), -3.48%; in experiment [3] (setting [11]), -3%; in experiment [4] (setting [12]) it was 2.77%; in experiment [5] (setting [13]) it was 0.44%; in experiment [6] (setting [14]), -3.37%. The inhibition at 1 µM was -4% in experiment [7] (setting [15]) and -0.298% in experiment [8] (setting [16]).
As for `COC(=O)N[C@@H](C)CNc1nccc(-c2cn(C(C)C)nc2-c2cc(Cl)cc(NS(C)(=O)=O)c2F)n1` [encorafenib], the inhibition at 1 µM in experiment [1] (setting [9]) was 10%; in experiment [2] (setting [10]), 6%; in experiment [3] (setting [11]) it was 5%; in experiment [4] (setting [12]) it was -0.942%; in experiment [5] (setting [13]), -0.237%; in experiment [6] (setting [14]), 4%. Moreover, the inhibition at 1 µM was -2.32% in experiment [7] (setting [15]) and 0.276% in experiment [8] (setting [16]).
`CN1CCN(c2ccc(C(=O)Nc3n[nH]c4ccc(Cc5cc(F)cc(F)c5)cc34)c(NC3CCOCC3)c2)CC1` [entrectinib]: the inhibition at 1 µM in experiment [1] (setting [9]) is -10%; in experiment [2] (setting [10]) it was -3.18%; in experiment [3] (setting [11]), -3%; in experiment [4] (setting [12]), -0.529%; in experiment [5] (setting [13]), 102%; in experiment [6] (setting [14]), 96%. The inhibition at 1 µM in experiment [7] (setting [15]) was -4.58%; in experiment [8] (setting [16]), 96%.
For `C[C@H]1Oc2cc(cnc2N)-c2c(nn(C)c2C#N)CN(C)C(=O)c2ccc(F)cc21` [lorlatinib], the inhibition at 1 µM was -6% in experiment [1] (setting [9]); -4.39% in experiment [2] (setting [10]); -3.52% in experiment [3] (setting [11]); 3% in experiment [4] (setting [12]); 26% in experiment [5] (setting [13]); -6% in experiment [7] (setting [15]). For the same molecule, in experiment [8] (setting [16]), the inhibition at 1 µM was determined as 8%.
